# Data: patent US12089593B2, “Compositions and methods for treating and preventing dust mite infestation” (EVOLVA SA, priority 2016, dated 2024)
# Tested on: Dust mite Dermataphagoides farinae
# Assay: Laboratory bioassay: dust mite susceptibility to nootkatone on treated filter paper envelopes
# Type: in vivo
# From the text: This example describes a laboratory bioassay in which groups of dust mites were exposed to a solution of the product to determine dust mite susceptibility to nootkatone.
# One milliliter of a 1% (wt/vol) nootkatone in ethanol formulation was applied directly to 9 cm discs of filter paper by pipette. The filter papers were allowed to dry completely and were cut to the appropriate size prior to the start of the test. Pure ethanol was used as a control.
# Treated and untreated (ethanol-treated only) filter papers were cut into 2.5 inch (6.35 cm) squares and folded into envelopes to serve as containers for the test. Five replicates of 35 dust mites were tested per treatment. After the mites were placed inside, the openings were sealed using clips so that the mites could not escape.
# Dust mites were only observed after 72 hours post-introduction to the test containers, due to their small size, and the likelihood of loss of mites during handling. […] Results
# [1] = 72 hours post introduction, filter paper treated with 1 mL of 1% (wt/vol) nootkatone in ethanol, dried, five replicates of 35 adult mixed-sex mites
smiles,measurement,setting,value
"C=C(C)[C@@H]1CCC2=CC(=O)C[C@@H](C)[C@]2(C)C1 [Nootkatone, nootkatone]",state of mites after exposure (175 total mites),72 hours of exposure to filter papers treated with 1% nootkatone in ethanol,all dead
same,Means Affected,[1],100.0%
same,Means Dead,[1],100.0%
same,Means KD (knockdown),[1],0.0%
same,mortality rates of dust mites,dust mites exposed to low concentrations of nootkatone,100%
